Measurements: US20250122250A1, “AUXIN-DEGRON SYSTEM KIT AND USE THEREFOR” (Inter-University Research Institute Corporation Research …, priority 2021, published 2025)
Blank lines part the entries; values can stand above or below the compound they belong to.

What was measured:
AtTIR1 (F79G) [1] = molecular target: T1, AtTIR1 (F79G) (Arabidopsis thaliana, UniProt Q570C0, D170E/F79G/M473L); test: AID*::GFP reporter degradation in embryos expressing AtTIR1 (F79G)::mRuby; format: in vivo; set-up: expressed in transfected cells
Experimental: Rapid removal of the target in the embryos is useful for analyzing a role of a protein in embryogenesis. Initially, 5-Ph-IAA was used to test the efficacy of protein removal in embryos. An egg-planting embryo expressing AtTIR1 (F79G)::mRuby and AID*::GFP was placed in a droplet of an M9 buffer including 50 μM 5-Ph-IAA, and then the reporter intensity was monitored (see FIG. 4A).
An egg-planting embryo expressing AtTIR1 (F79G)::mRuby and AID*::GFP was placed in a droplet of an M9 buffer including 50 μM 5-Ph-IAA-AM, and then the reporter intensity was monitored (see FIG. 4D).

AtTIR1 = molecular target: T2, AtTIR1 (Arabidopsis thaliana, UniProt Q570C0, D170E/M473L); test: AID*::GFP reporter level in second generation larvae expressing AtTIR1, grown on ligand plates; format: in vivo; settings: combined with AtTIR1, larvae treated for one generation; read-out: estimated DC50 value (ligand concentrations required for 50% degradation)
T2 construct: expressed in transfected cells; host or cells: transgenic C. elegans (larvae)
Experimental: (§1) Next, L1 larvae were grown on plates including ligands at different concentrations. The intensity of the AID*::GFP reporter of larvae (second generation) born from adults was monitored.
(§2) Furthermore, the efficacy of the AID2 system in adults was tested.

[2] = molecular target: AID*::GFP (Arabidopsis thaliana)
[3] = molecular target: AID*::GFP (Arabidopsis thaliana); remark: listed apart in the source
[4] = molecular target: AID*::GFP (Arabidopsis thaliana); remark: listed apart in the source
nematodes = test: number of progeny of L1 larvae grown in the presence of ligand; format: in vivo, C. elegans; settings: 5 μM 5-Ph-IAA, L1 larvae expressing AID*::GFP with AtTIR1 (F79G)
Experimental: Next, in order to confirm that 5-Ph-IAA is safer than IAA against nematodes, L1 larvae expressing AID*::GFP were each grown with AtTIR1 or AtTIR1 (F79G) in the presence of 1 mM IAA or 5 μM 5-Ph-IAA.

AtTIR1 (F79G) [5] = molecular target: T1, AtTIR1 (F79G); format: in vivo; set-up: expressed in transfected cells; host or cells: transgenic C. elegans (CRISPR-Cas9 knock-in at the ttTi5605 locus; larvae, adults, embryos)
Experimental: as §1, §2

AtTIR1 (F79G) [6] = molecular target: T1, AtTIR1 (F79G); test: AID*::GFP reporter degradation in adult nematodes expressing AtTIR1 (F79G); format: in vivo; set-up: expressed in transfected cells; host or cells: transgenic C. elegans (CRISPR-Cas9 knock-in at the ttTi5605 locus; larvae, adults, embryos); settings: 5 μM 5-Ph-IAA for 4 hours
Experimental: as §2

T1 sequence (Q570C0 whole entry F79G/D170E/M473L): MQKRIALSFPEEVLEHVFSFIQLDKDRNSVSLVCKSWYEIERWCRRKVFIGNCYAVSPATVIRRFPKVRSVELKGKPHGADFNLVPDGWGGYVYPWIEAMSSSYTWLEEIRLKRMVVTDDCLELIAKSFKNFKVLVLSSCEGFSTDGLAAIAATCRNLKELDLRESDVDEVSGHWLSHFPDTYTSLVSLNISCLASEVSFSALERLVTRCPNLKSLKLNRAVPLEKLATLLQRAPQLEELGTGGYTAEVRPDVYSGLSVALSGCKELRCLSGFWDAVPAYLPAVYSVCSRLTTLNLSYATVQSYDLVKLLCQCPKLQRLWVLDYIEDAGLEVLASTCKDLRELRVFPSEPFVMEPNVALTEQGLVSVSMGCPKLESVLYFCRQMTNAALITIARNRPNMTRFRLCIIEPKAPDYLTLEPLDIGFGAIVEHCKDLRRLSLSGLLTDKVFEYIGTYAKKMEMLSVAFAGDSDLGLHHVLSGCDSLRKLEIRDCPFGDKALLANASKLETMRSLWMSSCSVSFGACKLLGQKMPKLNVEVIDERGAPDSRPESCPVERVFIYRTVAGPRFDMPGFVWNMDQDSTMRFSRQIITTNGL
T1 sequence (G5ECU1 whole entry, further chain): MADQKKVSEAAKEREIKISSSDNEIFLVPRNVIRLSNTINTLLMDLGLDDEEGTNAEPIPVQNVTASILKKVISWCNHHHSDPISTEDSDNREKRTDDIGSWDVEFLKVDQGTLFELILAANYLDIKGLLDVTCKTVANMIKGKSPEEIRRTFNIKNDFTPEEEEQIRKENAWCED
T1 sequence (P93830 71-114, further chain): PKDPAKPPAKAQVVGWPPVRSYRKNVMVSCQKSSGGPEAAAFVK
T2 sequence (G5ECU1 whole entry): as the sequence (G5ECU1 whole entry, further chain) above
T2 sequence (Q570C0 whole entry D170E/M473L): as the sequence (Q570C0 whole entry F79G/D170E/M473L) above, with G79F counted along it
T2 sequence (P93830 71-114, further chain): as the sequence (P93830 71-114, further chain) above

Compound: CC(=O)OCOC(=O)Cc1c[nH]c2ccc(-c3ccccc3)cc12 [5-Ph-IAA-AM, 5-phenylindole 3-acetic acid acetoxymethyl ester]
degradation of AID*::GFP reporter in embryos (AtTIR1 (F79G) [1]; 50 μM 5-Ph-IAA-AM in M9 buffer): rapid degradation in all embryos

Compound: O=C(O)Cc1c[nH]c2ccccc12 [IAA]
DC50 (AtTIR1): 59 µM

half-life of the AID*::GFP reporter level in larvae treated with 1 mM IAA [2]: 16.8 min | intensity of AID*::GFP in larvae, no ligand added (basal degradation) [3]: 73% | DC50 (ligand concentration required for 50% degradation) of IAA, AID*::GFP reporter in larvae treated for one generation [4]: 59 µM
Compound: AtTIR1::mRuby

half-life of the AID*::GFP reporter level in larvae treated with 5 µM 5-Ph-IAA [2]: 15.5 min | DC50 (ligand concentration required for 50% degradation) of 5-Ph-IAA, AID*::GFP reporter in larvae treated for one generation [4]: 0.0045 µM
Compound: AtTIR1 (F79G)::mRuby

Compound: O=C(O)Cc1c[nH]c2ccc(-c3ccccc3)cc12 [5-Ph-IAA, 5-phenylindole-3-acetic acid]
number of progeny (nematodes): showed no difference | time at which degradation of the reporter reached the maximum (AtTIR1 (F79G) [1]; 50 μM 5-Ph-IAA, embryos): 15 to 30 min | embryos with rapid decrease of fluorescence intensity (AtTIR1 (F79G) [1]; 50 μM in M9 buffer, 18/23 embryos): 78% | embryos with rapid decrease of fluorescence intensity (AtTIR1 (F79G) [1]; 100 μM, 16/20 embryos): 80% | AID*::GFP reporter expression in second generation larvae (AtTIR1 (F79G) [5]; 5.0 μM 5-Ph-IAA, among different ligand concentrations): lowest reporter expression | ligand concentration required, times lower than that of the AID system (IAA with AtTIR1) (AtTIR1 (F79G) [5]; long-term treatment, AID2 system vs AID system): about 1,300 times | DC50 (AtTIR1 (F79G) [5]; read-out: estimated DC50 value (ligand concentrations required for 50% degradation), combined with AtTIR1 (F79G), larvae treated for one generation): 0.0045 µM | AID*::GFP reporter in adults (AtTIR1 (F79G) [6]): a loss of the reporter was observed
